Laboratory results taken from PubChem BioAssay AID248 (DTP/NCI, 2004).
Toxic doses and inconclusive results are not listed.

Tested on: L1210 leukemia ip in BDF1 mice, survival T/C
Assay: NCI In Vivo Anticancer Drug Screen. Data for tumor model L1210 Leukemia (intraperitoneal) in B6D2F1 (BDF1) mice
Details: endpoint: mean survival time, higher = longer survival
In short: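 In this screen, tumor-bearing mice given compound are compared to those given vehicle, and their survival values are reported as a treated-to-control quotient.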

[1] = dose: 100.0 mg/kg/injection, schedule: Q01DX001 (ip), vehicle: saline
[2] = dose: 200.0 mg/kg/injection, schedule: Q01DX001 (ip), vehicle: saline
[3] = dose: 400.0 mg/kg/injection, schedule: Q01DX001 (ip), vehicle: saline
[4] = dose: 100.0 mg/kg/injection, schedule: Q04DX003 (ip), vehicle: saline
[5] = dose: 200.0 mg/kg/injection, schedule: Q04DX003 (ip), vehicle: saline
[6] = dose: 400.0 mg/kg/injection, schedule: Q04DX003 (ip), vehicle: saline

Q: Which T/C (dose: 100.0 mg/kg/injection, schedule: Q01DX001 (ip), vehicle: acetone) does the source give for `O=C(O)C1(C(=O)O)CC2CC=CCC2C1` (stereo not drawn) here?
A: 97 % of control

Q: What about the T/C (dose: 100.0 mg/kg/injection, schedule: Q04DX003 (ip), vehicle: acetone) of the same compound?
A: 100 % of control

Q: And the T/C (dose: 200.0 mg/kg/injection, schedule: Q01DX001 (ip), vehicle: acetone)?
A: 101 % of control

Q: What about the T/C (dose: 200.0 mg/kg/injection, schedule: Q04DX003 (ip), vehicle: acetone) of the same compound?
A: 104 % of control

Q: And the T/C (dose: 400.0 mg/kg/injection, schedule: Q01DX001 (ip), vehicle: acetone)?
A: 95 % of control

Q: What about the T/C (dose: 400.0 mg/kg/injection, schedule: Q04DX003 (ip), vehicle: acetone) of the same compound?
A: 98 % of control

Q: Which T/C (dose: 100.0 mg/kg/injection, schedule: Q01DX Z (ip), vehicle: methylcellulose (MC)) does the source give for `CCc1c(Nc2ccccc2Cl)nc(N)[nH]c1=O` here?
A: 95 % of control

Q: What does the source list for `CC(=O)SC1CS(=O)(=O)CC1SC(C)=O` (stereo not drawn)?
A: T/C (dose: 100.0 mg/kg/injection, schedule: Q04DX003 (ip), vehicle: Klucel (hydroxypropylcellulose) (HPC)): 93 % of control; T/C (dose: 200.0 mg/kg/injection, schedule: Q04DX003 (ip), vehicle: Klucel (hydroxypropylcellulose) (HPC)): 101 % of control

Q: Which results are given for `O=C1CCc2cc(Br)ccc2O1`?
A: T/C (dose: 50.0 mg/kg/injection, schedule: Q01DX001 (ip), vehicle: saline): 92 % of control; T/C [1]: 103 % of control; T/C [2]: 100 % of control; T/C [3]: 100 % of control

Q: How did the T/C (dose: 100.0 mg/kg/injection, schedule: Q01DX001 (ip), vehicle: other) turn out when `O=C(O)C(Cc1ccccc1)NS(=O)(=O)Cc1ccccc1` (stereo not drawn) was run?
A: 100 % of control

Q: What about the T/C (dose: 100.0 mg/kg/injection, schedule: Q04DX003 (ip), vehicle: other) of the same compound?
A: 96 % of control

Q: And the T/C (dose: 200.0 mg/kg/injection, schedule: Q01DX001 (ip), vehicle: other)?
A: 102 % of control

Q: And the T/C (dose: 200.0 mg/kg/injection, schedule: Q04DX003 (ip), vehicle: other)?
A: 93 % of control

Q: And the T/C (dose: 400.0 mg/kg/injection, schedule: Q01DX001 (ip), vehicle: other)?
A: 100 % of control

Q: What about the T/C (dose: 400.0 mg/kg/injection, schedule: Q04DX003 (ip), vehicle: other) of the same compound?
A: 93 % of control

Q: Which T/C (dose: 6.25 mg/kg/injection, schedule: Q04DX003 (ip), vehicle: Klucel (hydroxypropylcellulose) (HPC)) does the source give for `CC(=O)[O][Hg][c]1s[c]([Hg][O]C(C)=O)[c]([Hg][O]C(C)=O)[c]1[Hg][O]C(C)=O` here?
A: 104 % of control

Q: What about the T/C (dose: 12.5 mg/kg/injection, schedule: Q04DX003 (ip), vehicle: Klucel (hydroxypropylcellulose) (HPC)) of the same compound?
A: 102 % of control

Q: And the T/C (dose: 25.0 mg/kg/injection, schedule: Q04DX003 (ip), vehicle: Klucel (hydroxypropylcellulose) (HPC))?
A: 95 % of control

Q: What about the T/C (dose: 50.0 mg/kg/injection, schedule: Q04DX003 (ip), vehicle: Klucel (hydroxypropylcellulose) (HPC)) of the same compound?
A: 101 % of control

Q: With `Cc1ccc(OCC(=O)Nc2c(Cl)cc(Cl)cc2Cl)c(C)c1` as the compound, how does the T/C (dose: 100.0 mg/kg/injection, schedule: Q04DX002 (ip), vehicle: gum acacia) read?
A: 92 % of control

Q: What about the T/C (dose: 200.0 mg/kg/injection, schedule: Q04DX002 (ip), vehicle: gum acacia) of the same compound?
A: 89 % of control

Q: With `NC(=S)N/N=C1/CCc2ccccc21` as the compound, how does the T/C (dose: 100.0 mg/kg/injection, schedule: Q01DX001 (ip), vehicle: carboxymethylcellulose (CMC)) read?
A: 113 % of control

Q: `CCOC(=O)CCC(NC(=O)N(CCCl)CCCl)C(=O)OCC` (stereo not drawn) was tested. Which T/C (dose: 250.0 mg/kg/injection, schedule: Q01DX Z (ip), vehicle: water) did it give?
A: 90 % of control

Q: What about the T/C (dose: 400.0 mg/kg/injection, schedule: Q01DX009 (ip), vehicle: saline) of the same compound?
A: 183 % of control

Q: Which results are given for `O=C(C1C2CCC(CC2)C1C(=O)N1CCCCC1)N1CCCCC1` (stereo not drawn)?
A: T/C [4]: 108 % of control; T/C [5]: 100 % of control; T/C [6]: 100 % of control

Q: Which results are given for `CCCc1cn(C(=O)NC2CCCCC2)c2ccccc12`?
A: T/C [1]: 94 % of control; T/C [4]: 106 % of control; T/C [2]: 94 % of control; T/C [5]: 112 % of control; T/C [3]: 87 % of control; T/C [6]: 93 % of control

Q: For `OC(Cc1ccc(-c2ccccc2)cc1)c1ccccc1` (stereo not drawn), which T/C (dose: 50.0 mg/kg/injection, schedule: Q01DX001 (ip), vehicle: saline with Tween-80) is on record?
A: 93 % of control

Q: What about the T/C (dose: 100.0 mg/kg/injection, schedule: Q01DX001 (ip), vehicle: saline with Tween-80) of the same compound?
A: 91 % of control

Q: What about the T/C (dose: 200.0 mg/kg/injection, schedule: Q01DX001 (ip), vehicle: saline with Tween-80) of the same compound?
A: 91 % of control

Q: What does the source list for `CN(C)C(=S)[S][Pb]([S]C(=S)N(C)C)([c]1ccccc1)[c]1ccccc1`?
A: T/C (dose: 100.0 mg/kg/injection, schedule: Q01DX001 (ip), vehicle: steriod suspending solution): 114 % of control; T/C (dose: 200.0 mg/kg/injection, schedule: Q01DX001 (ip), vehicle: steriod suspending solution): 111 % of control; T/C (dose: 400.0 mg/kg/injection, schedule: Q01DX001 (ip), vehicle: steriod suspending solution): 109 % of control
